pIC50: −log10 of the molar value. Some results are limits rather than exact numbers.

As usually defined, the pIC50 is −log10 of the IC50, conventionally taken in molar units. Lower therefore signals a large IC50.

The target of the experiment is T1, GAL4-DBD/RORγ-LBD (Homo sapiens, UniProt P51449).
T1 construct: expressed in transfected cells; host or cells: HEK293T
T1 sequence (P51449 269-508 limits assumed): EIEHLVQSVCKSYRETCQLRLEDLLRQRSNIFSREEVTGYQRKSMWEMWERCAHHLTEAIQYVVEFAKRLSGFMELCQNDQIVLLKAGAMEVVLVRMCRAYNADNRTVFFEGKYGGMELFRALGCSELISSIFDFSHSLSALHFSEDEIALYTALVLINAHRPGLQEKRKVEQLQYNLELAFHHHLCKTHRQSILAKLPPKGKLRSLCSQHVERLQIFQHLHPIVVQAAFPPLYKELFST
T1 sequence (P04386 1-147 partner limits assumed): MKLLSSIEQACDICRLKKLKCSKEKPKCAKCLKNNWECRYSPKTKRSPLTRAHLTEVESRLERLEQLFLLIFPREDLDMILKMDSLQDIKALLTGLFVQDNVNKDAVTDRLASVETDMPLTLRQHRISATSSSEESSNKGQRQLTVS
Kind of experiment: RORγt transactivation reporter assay (GAL4-DBD/RORγ-LBD, luciferase read out). The note with it: HEK293T cells, GAL4-UAS luciferase reporter, overnight (18-24 hours) incubation. The experiment is classed as cell-based. Here is the method:
RORγt Transactivation Reporter Assay Protocol: The inhibition of RORγt activity in cells was evaluated using a GAL4-UAS reporter system in HEK293T cells employing a luciferase read out. RORγt ligand binding domain (LBD) was cloned into the pFN26A (BIND) vector (Promega #[…]) containing yeast GAL4-DBD to form a RORγt LBD-GAL4 DBD fusion construct. This vector also contained a Renilla Luciferase reporter expressed under a SV40 promoter which was used as a control for transfection efficiency. A transcriptional reporter expression construct pGL4.35 (Promega #[…]) was used to monitor RORγt LBD-GAL4 activity. This construct contained nine repeats of GAL4 binding site/upstream activating sequence (UAS) controlling expression of a firefly luciferase reporter Luc2P. When transfected together in cells, the RORγ-LBD-DBD fusion protein drives expression of the luciferase reporter. For the assay, HEK293T cells were plated in a flat bottom 96 well plate at a density of 25,000 cells/well/100 ul of DMEM high glucose medium (Sigma D5648) containing 10% FBS and antibiotic. Cells were incubated overnight at 37 C/5% CO2. The next day, medium from the wells was removed and replaced with 30 ul of OptiMEM® (Invitrogen #31985070). 100 ng each of pBIND RORγ LBD-DBD and pGL4.35 reporter plasmids was transfected in HEK293T cells using Lipofectamine 2000 (Invitrogen #11668-019) where 10 ul of transfection complex was added to the each well. Control transfections were performed with an empty pF[…] vector and pGL4.35 vector. The transfected cells were incubated for 5 hours at 37 C/5% CO2. After incubation, 40 ul of DMEM high glucose medium without FBS, with antibiotic was added to each well. A 10 mM stock solution of test compound prepared in 100% DMSO was first diluted in DMSO and then in DMEM medium without FBS to give the required final compound concentration. Concentration of DMSO in the test compound solution was 0.4%. 20 ul of diluted compound solution was added to each well. Cells were incubated overnight (18-24 hours) at 37 C/5% CO2. The next day, luciferase assay was performed using the Dual Glo® Luciferase Assay System (Promega #E2940). Briefly, medium was removed from the wells and replaced with 40 ul 1× Passive Lysis Buffer (Promega #E1941). Plate was incubated at room temperature on a plate shaker at 1000 rpm for 40 min. After incubation, plate was centrifuged at 1000 rpm for 2 min. 20 ul of the lysate was transferred from each well to that of solid white half area 96 well plate (Costar #3693). Dual Glo® Reagent was thawed to room temperature and 20 ul was added to each well containing lysate. Plate was centrifuged at 1000 rpm/2 min and incubated at room temperature on a plate shaker at 600 rpm/25 min. Firefly luciferase signal was measured on a Tecan Safire2. After measurement, 20 ul of Dual Glo® Stop Glo® Reagent was added to each well. Plate was centrifuged at 1000 rpm/2 min and incubated at room temperature on a plate shaker at 600 rpm/25 min. Renilla luciferase signal was measured on Tecan Safire 2. IC50 values for test compounds were calculated from the normalized luciferase signal data using GraphPad Prism software.
In general terms: Reporter assays use an easily measured gene product as a stand-in for the process of interest.
Molecule `O=C(O)c1ccc(-c2cc(C(=O)c3c(Cl)cccc3Cl)n3cc(C(F)(F)F)ccc23)cc1` [Example A-63, 4-[3-(2,6-dichlorobenzoyl)-6-(trifluoromethyl)indolizin-1-yl]benzoic acid] had a pIC50 greater than 5.30.
`CCOC(=O)c1ccc(-c2cc(C(=O)c3c(Cl)cccc3Cl)n3cc(C(F)(F)F)ccc23)cc1` [Example A-64, ethyl 4-[3-(2,6-dichlorobenzoyl)-6-(trifluoromethyl)indolizin-1-yl]benzoate] showed a pIC50 greater than 6.30.
In the case of `O=C(c1c(Cl)cccc1C(F)(F)F)c1cc(C2=CCC(C(=O)O)CC2)c2ccccn12` (centres unmarked) [Example A-65, 4-[3-[2-chloro-6-(trifluoromethyl)benzoyl]indolizin-1-yl]cyclohex-3-ene-1-carboxylic acid] it was greater than 6.30; in that of `CCOC(=O)c1ccc(-c2c(F)c(C(=O)c3c(Cl)cccc3Cl)n3ccccc23)cc1` [Example B-1, Ethyl 4-[3-(2,6-dichlorobenzoyl)-2-fluoro-indolizin-1-yl]benzoate], greater than 6.30; in that of `O=C(O)c1ccc(-c2c(F)c(C(=O)c3c(Cl)cccc3Cl)n3ccccc23)cc1` [Example B-2, 4-[3-(2,6-dichlorobenzoyl)-2-fluoro-indolizin-1-yl]benzoic acid], greater than 6.30.
In the case of `COC(=O)c1ccc(-c2c(F)c(C(=O)c3c(Cl)cccc3Cl)n3ccccc23)c(F)c1` [Example B-3, methyl 4-[3-(2,6-dichlorobenzoyl)-2-fluoro-indolizin-1-yl]-3-fluoro-benzoate] it was greater than 6.30; in that of `O=C(O)c1ccc(-c2c(F)c(C(=O)c3c(Cl)cccc3Cl)n3ccccc23)c(F)c1` [Example B-4, 4-[3-(2,6-dichlorobenzoyl)-2-fluoro-indolizin-1-yl]-3-fluoro-benzoic acid], greater than 6.30; in that of `CCOC(=O)c1ccc(-c2c(F)c(C(=O)c3c(Cl)ccc(F)c3Cl)n3ccccc23)cc1` [Example B-5, ethyl 4-[3-(2,6-dichloro-3-fluoro-benzoyl)-2-fluoro-indolizin-1-yl]benzoate], greater than 6.30.
In the case of `O=C(O)c1ccc(-c2c(F)c(C(=O)c3c(Cl)ccc(F)c3Cl)n3ccccc23)cc1` [Example B-6, 4-[3-(2,6-dichloro-3-fluoro-benzoyl)-2-fluoro-indolizin-1-yl]benzoic acid] it was greater than 6.30; in that of `CCOC(=O)c1ccc(-c2c(C)c(C(=O)c3c(Cl)cccc3Cl)n3ccccc23)c(F)c1` [Example C-1, ethyl 4-[3-(2,6-dichlorobenzoyl)-2-methyl-indolizin-1-yl]-3-fluoro-benzoate], greater than 6.30; in that of `Cc1c(-c2ccc(C(=O)O)cc2F)c2ccccn2c1C(=O)c1c(Cl)cccc1Cl` [Example C-2, 4-[3-(2,6-dichlorobenzoyl)-2-methyl-indolizin-1-yl]-3-fluoro-benzoic acid], greater than 6.30.
Turning to `CCOC(=O)c1ccc(-c2c(C)c(C(=O)c3c(Cl)cccc3Cl)n3ccccc23)cc1` [Example C-3, ethyl 4-[3-(2,6-dichlorobenzoyl)-2-methyl-indolizin-1-yl]benzoate], the pIC50 was greater than 6.30.
In the case of `Cc1c(-c2ccc(C(=O)O)cc2)c2ccccn2c1C(=O)c1c(Cl)cccc1Cl` [Example C-4, 4-[3-(2,6-dichlorobenzoyl)-2-methyl-indolizin-1-yl]benzoic acid] it was greater than 6.30; in that of `Cc1c(-c2ccc(C(=O)O)cc2)c2ccccn2c1C(=O)c1c(Cl)ccnc1Cl` [Example C-5, 4-[3-(2,4-dichloropyridine-3-carbonyl)-2-methyl-indolizin-1-yl]benzoic acid], greater than 6.30.
The result for `Cc1c(-c2ccc(C(=O)O)cc2F)c2ccccn2c1C(=O)c1c(Cl)cccc1C(F)(F)F` [Example C-6, 4-[3-[2-chloro-6-(trifluoromethyl)benzoyl]-2-methyl-indolizin-1-yl]-3-fluoro-benzoic acid] reads greater than 6.30; that for `Cc1c(-c2ccc(C(=O)O)cc2)c2ccccn2c1C(=O)c1c(Cl)cccc1C(F)(F)F` [Example C-7, 4-[3-[2-chloro-6-(trifluoromethyl)benzoyl]-2-methyl-indolizin-1-yl]benzoic acid], greater than 6.30; that for `COC(=O)c1ccc(-c2c(C)c(C(=O)c3c(Cl)cccc3C(F)(F)F)n3ccccc23)c(F)c1` [Example C-8, methyl 4-[3-[2-chloro-6-(trifluoromethyl)benzoyl]-2-methyl-indolizin-1-yl]-3-fluoro-benzoate], greater than 6.30.
In the case of `CCOC(=O)c1ccc(-c2c(C)c(C(=O)c3c(Cl)cccc3C(F)(F)F)n3ccccc23)cc1` [Example C-9, ethyl 4-[3-[2-chloro-6-(trifluoromethyl)benzoyl]-2-methyl-indolizin-1-yl]benzoate] it was greater than 6.30.
The molecule `CCOC(=O)c1ccc(-c2c(C)c(C(=O)c3c(Cl)ccnc3Cl)n3ccccc23)cc1` [Example C-10, ethyl 4-[3-(2,4-dichloropyridine-3-carbonyl)-2-methyl-indolizin-1-yl]benzoate] had a pIC50 greater than 5.30.
Take `CN(C)C(=O)c1ccc2c(-c3ccc(C(=O)O)cc3)cc(C(=O)c3c(Cl)cccc3C(F)(F)F)n2c1` [Example D-1, 4-[3-[2-chloro-6-(trifluoromethyl)benzoyl]-6-(dimethylcarbamoyl)indolizin-1-yl]benzoic acid]: the negative logarithm of the IC50 (pIC50) was greater than 6.30.
In the case of `CN(C)C(=O)c1ccc2c(-c3ccc(C(=O)O)cc3)cc(C(=O)c3c(Cl)cccc3Cl)n2c1` [Example D-2, 4-[3-(2,6-dichlorobenzoyl)-6-(dimethylcarbamoyl)indolizin-1-yl]benzoic acid] it was greater than 6.30.
In the case of `O=C(O)c1ccc(-c2cc(C(=O)c3c(Cl)cccc3Cl)n3cc(C(=O)N4CCOCC4)ccc23)cc1` [Example D-3, 4-[3-(2,6-dichlorobenzoyl)-6-(morpholine-4-carbonyl)indolizin-1-yl]benzoic acid] it was greater than 6.00; in that of `O=C(O)c1ccc(-c2cc(C(=O)c3c(Cl)cccc3Cl)n3cc(C(=O)N4CCCCC4)ccc23)cc1` [Example D-4, 4-[3-(2,6-dichlorobenzoyl)-6-(piperidine-1-carbonyl)indolizin-1-yl]benzoic acid], greater than 6.00; in that of `O=C(O)c1ccc(-c2cc(C(=O)c3c(Cl)cccc3Cl)n3cc(C(=O)N4CCCC4)ccc23)cc1` [Example D-5, 4-[3-(2,6-dichlorobenzoyl)-6-(pyrrolidine-1-carbonyl)indolizin-1-yl]benzoic acid], greater than 6.30.
In the case of `O=C(O)c1ccc(-c2cc(C(=O)c3c(Cl)cccc3Cl)n3cc(C(=O)N4CCC4)ccc23)cc1` [Example D-6, 4-[6-(azetidine-1-carbonyl)-3-(2,6-dichlorobenzoyl)indolizin-1-yl]benzoic acid] it was greater than 6.30; in that of `O=C(O)c1ccc(-c2cc(C(=O)c3c(Cl)cccc3Cl)n3cc(C(=O)NCCO)ccc23)cc1` [Example D-7, 4-[3-(2,6-dichlorobenzoyl)-6-(2-hydroxyethylcarbamoyl)indolizin-1-yl]benzoic acid], less than 5.30.
`COCCNC(=O)c1ccc2c(-c3ccc(C(=O)O)cc3)cc(C(=O)c3c(Cl)cccc3Cl)n2c1` [Example D-8, 4-[3-(2,6-dichlorobenzoyl)-6-(2-methoxyethylcarbamoyl)indolizin-1-yl]benzoic acid] had a negative logarithm of the IC50 (pIC50) of less than 5.30.
The result for `O=C(O)c1ccc(-c2cc(C(=O)c3c(Cl)cccc3C(F)(F)F)n3cc(C(=O)N4CCC4)ccc23)cc1` [Example D-11, 4-[6-(azetidine-1-carbonyl)-3-[2-chloro-6-(trifluoromethyl)benzoyl]indolizin-1-yl]benzoic acid] reads greater than 6.30; that for `COC1CN(C(=O)c2ccc3c(-c4ccc(C(=O)O)cc4)cc(C(=O)c4c(Cl)cccc4Cl)n3c2)C1` [Example D-14, 4-[3-(2,6-dichlorobenzoyl)-6-(3-methoxyazetidine-1-carbonyl)indolizin-1-yl]benzoic acid], greater than 6.30.

Values taken from US10435402B2, “Bicyclic compounds, compositions and medicinal applications thereof” (Advinus Therapeutics Limited, priority 2015, dated 2019).
